Results on 28 compounds are retold here after patent US9145415B2, “Nitrogen-containing heterocyclic compound or salt thereof” (FUJIFILM Corporation, priority 2012, dated 2015).

In test [1] the target is T1, human FLT3 protein (FLT3 (WT)) (Homo sapiens, UniProt P36888).
T1 construct: human FLT3 protein (intracellular region, 564 to 993 aa); GST; purchased Carna Biosciences; host or cells: baculovirus expression system
T1 sequence (P36888 564-993): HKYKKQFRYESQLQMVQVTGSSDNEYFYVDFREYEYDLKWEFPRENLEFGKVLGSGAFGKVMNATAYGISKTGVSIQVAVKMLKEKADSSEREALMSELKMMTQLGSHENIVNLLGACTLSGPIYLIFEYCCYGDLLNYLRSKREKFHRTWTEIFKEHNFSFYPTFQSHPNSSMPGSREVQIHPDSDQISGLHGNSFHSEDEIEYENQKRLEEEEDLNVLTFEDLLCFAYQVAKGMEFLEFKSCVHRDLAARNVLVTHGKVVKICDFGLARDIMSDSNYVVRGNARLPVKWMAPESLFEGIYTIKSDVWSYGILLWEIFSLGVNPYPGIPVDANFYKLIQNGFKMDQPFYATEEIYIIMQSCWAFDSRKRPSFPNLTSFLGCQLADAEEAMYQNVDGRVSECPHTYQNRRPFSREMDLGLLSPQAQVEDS
Description: FLT3 inhibition test (FLT3 enzyme inhibition, time-resolved fluorescence of substrate peptide phosphorylation). In kind it is biochemical. The following applies: GST-fused human FLT3 (564 to 993 aa), ATP 50 μM; read-out: FLT3 (WT) enzyme inhibition activity. The procedure, abridged: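 Wild-type human FLT3 (1.2 μg) pre-incubated with compound 15 min at 25° C in 100 mM HEPES pH 7.5, 10 mM MgCl2, 25 mM NaCl, 1 mM DTT. Reaction started with substrate peptide and ATP (final 50 μM), run 30 min at 25° C; phosphorylation read by time-resolved fluorescence.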

Test [2] deals with MV4-11 cells. Description: Leukemia cell proliferation inhibition test (ATPlite), MV4-11. In kind it is cell-based. As to conditions: Homo sapiens, MV4-11, 72 h, MV4-11, 72 hours culture, ATPlite; GI50 per method; read-out: MV4-11 cell proliferation inhibition effect. The procedure, abridged:
(§1)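 Molm-13 or MV4-11 cells in RPMI with 10% FBS and pen/strep, seeded at 10,000 cells per well, were exposed to serially diluted compound for 72 hours at 37° C, 5% CO2. Total cellular ATP was read by luciferase luminescence. GI50 came from sigmoid fits against the 0.1% DMSO control, in duplicate.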

In test [3] the test system is Molm-13 cells. Put plainly: Leukemia cell proliferation inhibition test (ATPlite), Molm-13. In kind it is cell-based. As to conditions: Homo sapiens, MOLM-13, 72 h, Molm-13, 72 hours culture, ATPlite; GI50 per method; read-out: MOLM13 cell proliferation inhibition effect. Put shortly:
as §1

On to `CCCNc1nc(NC(=O)Nc2ccncc2)ncc1C(=O)Nc1cccc(NC(=O)[C@H](C)NC(=O)/C=C/CN(C)C)c1` [Compound 6-15], for which the IC50 in test [1] is below 0.01 µM; in test [2], 0.1 to 1 µM; in test [3] it was 0.1 to 1 µM.

For the compound `C=CC(=O)N1CCC(NC(=O)c2cnc(NCCc3ccncc3)nc2NCCC)C1` (stereo not drawn) [Compound 6-16], the IC50 is 0.01 to 0.1 µM in test [1], 0.1 to 1 µM in test [2] and 0.01 to 0.1 µM in test [3].

As to `C=CC(=O)NCC(=O)N1CCC(NC(=O)c2cnc(NCCc3ccncc3)nc2NCCC)C1` (stereo not drawn) [Compound 6-17], the values for the IC50 in test [1], in test [2] and in test [3] were 0.01 to 0.1 µM, 0.1 to 1 µM and 0.1 to 1 µM, respectively.

As to `C=CC(=O)N1CCC(NC(=O)c2cnc(NCCc3ccncc3)nc2NCCC)CC1` [Compound 6-18], the results for the IC50 in test [1], in test [2] and in test [3] were below 0.01 µM, 0.01 to 0.1 µM and 0.01 to 0.1 µM, respectively.

`C=CC(=O)NCC(=O)N1CCC(NC(=O)c2cnc(NCCc3ccncc3)nc2NCCC)CC1` [Compound 6-19]: the IC50 in test [1], in test [2] and in test [3] was 0.01 to 0.1 µM throughout.

Turning to `CCCNc1nc(Nc2cccc(F)c2)ncc1CNc1cccc(NC(=O)[C@H](C)N(C)C(=O)/C=C/CN(C)C)c1` [Compound 6-21], the results for the IC50 in test [1], in test [2] and in test [3] were 0.01 to 0.1 µM, 0.1 to 1 µM and 0.1 to 1 µM, respectively.

Turning to `CCCNc1nc(Nc2cccc(F)c2)ncc1-c1nc2ccc(NC(=O)[C@H](C)N(C)C(=O)/C=C/CN(C)C)cc2o1` [Compound 6-23, (S,E)-4-(dimethylamino)-N-(1-((2-(2-((3-fluorophenyl)amino)-4-(propylamino)pyrimidin-5-yl)benzo[d]oxazol-6-yl)amino)-1-oxopropan-2-yl)-N-methyl-2-butenamide], the IC50 in test [1] fell in the range of 0.01 to 0.1 µM; in test [2], 0.1 to 1 µM; in test [3] it was 0.1 to 1 µM.

Consider `CCCNc1nc(Nc2cccc(F)c2)ncc1C#CCCCNC(=O)[C@H](C)N(C)C(=O)/C=C/CN(C)C` [Compound 7-1, (S,E)-4-(dimethylamino)-N-(1-((5-(2-((3-fluorophenyl)amino)-4-(propylamino)pyrimidin-5-yl)-4-pentyn-1-yl)amino)-1-oxopropan-2-yl)-N-methyl-2-butenamide], for which the IC50 in test [1], in test [2] and in test [3] was below 0.01 µM each time.

Turning to `CCCNc1nc(Nc2ccc(C(N)=O)cc2)ncc1C#CCCCNC(=O)CNC(=O)/C=C/CN(C)C` [Compound 7-2], the IC50 in test [1], in test [2] and in test [3] was below 0.01 µM in each case.

On to `CCCNc1nc(Nc2cccc(C#N)c2)ncc1C#CCCCNC(=O)[C@H](C)N(C)C(=O)/C=C/CN(C)C` [Compound 7-3, (S,E)-N-(1-((5-(2-((3-Cyanophenyl)amino)-4-(propylamino)pyrimidin-5-yl)-4-pentyn-1-yl)amino)-1-oxopropan-2-yl)-4-(dimethylamino)-N-methyl-2-butenamide], for which the IC50 in test [1], in test [2] and in test [3] was below 0.01 µM in each case.

With `CCCNc1nc(Nc2ccc(C(N)=O)cc2)ncc1C#CCCCNC(=O)[C@H](C)N(C)C(=O)/C=C/CN(C)C` [Compound 7-4, (S,E)-4-((5-(5-(2-(4-(Dimethylamino)-N-methyl-2-butenamido)propaneamido)-1-pentyn-1-yl)-4-(propylamino)pyrimidin-2-yl)amino)benzamide], the IC50 in test [1], in test [2] and in test [3] was below 0.01 µM each time.

Turning to `C[C@@H](C(=O)NCCCC#Cc1cnc(Nc2cccc(F)c2)nc1OC1CCC1)N(C)C(=O)/C=C/CN(C)C` [Compound 7-6], the IC50 in test [1] is below 0.01 µM; in test [2], 0.01 to 0.1 µM; in test [3], 0.01 to 0.1 µM.

As for `C[C@@H](C(=O)NCCCC#Cc1cnc(Nc2cccc(F)c2)nc1NC1=CC2C=CC=NC2C=C1)N(C)C(=O)/C=C/CN(C)C` (stereo partly drawn) [Compound 7-7], the IC50 in test [1], in test [2] and in test [3] was below 0.01 µM throughout.

For `CCCNc1nc(Nc2ccc(F)cc2)ncc1C#CCCCNC(=O)CN(C)C(=O)/C=C/CN(C)C` [Compound 7-8, (E)-4-(Dimethylamino)-N-(2-((5-(2-((4-fluorophenyl)amino)-4-(propylamino)pyrimidin-5-yl)-4-pentyn-1-yl)amino)-2-oxoethyl)-N-methyl-2-butenamide], the IC50 in test [1], in test [2] and in test [3] was below 0.01 µM throughout.

In the case of `CCCNc1nc(Nc2ccc(C#N)cc2)ncc1C#CCCCNC(=O)CN(C)C(=O)/C=C/CN(C)C` [Compound 7-9, (E)-N-(2-((5-(2-((4-Cyanophenyl)amino)-4-(propylamino)pyrimidin-5-yl)-4-pentyn-1-yl)amino)-2-oxoethyl)-4-(dimethylamino)-N-methyl-2-butenamide], the IC50 in test [1], in test [2] and in test [3] was below 0.01 µM in each case.

Turning to `CCCNc1nc(Nc2cccc(F)c2)ncc1C#CCCCNC(=O)[C@H](C(C)C)N(C)C(=O)/C=C/CN(C)C` [Compound 7-10], the IC50 is below 0.01 µM in test [1], 0.01 to 0.1 µM in test [2] and 0.01 to 0.1 µM in test [3].

In the case of `CCCNc1nc(Nc2cccc(F)c2)ncc1C#CCCCNC(=O)[C@H](CC(C)C)N(C)C(=O)/C=C/CN(C)C` [Compound 7-11], the IC50 is below 0.01 µM in test [1], 0.01 to 0.1 µM in test [2] and 0.01 to 0.1 µM in test [3].

Take `CCCNc1nc(Nc2cccc(F)c2)ncc1C#CCCCNC(=O)[C@H](C(C)CC)N(C)C(=O)/C=C/CN(C)C` (stereo partly drawn) [Compound 7-12]: the IC50 in test [1] lay in the range of 0.01 to 0.1 µM; in test [2], 0.1 to 1 µM; in test [3], 0.1 to 1 µM.

Consider `C[C@@H](C(=O)NCCCC#Cc1cnc(Nc2cccc(F)c2)nc1Nc1ccc(C#N)cc1)N(C)C(=O)/C=C/CN(C)C` [Compound 7-14], for which the IC50 in test [1] was below 0.01 µM; in test [2], below 0.01 µM; in test [3] it was 0.01 to 0.1 µM.

As for `CCCNc1nc(Nc2ccc(C(=O)N(C)C)cc2)ncc1C#CCCCNC(=O)[C@H](C)N(C)C(=O)/C=C/CN(C)C` [Compound 7-15], the IC50 in test [1] is 0.01 to 0.1 µM; in test [2] it was below 0.01 µM; in test [3], below 0.01 µM.

For the compound `CCCNc1nc(Nc2ccc(C(=O)N(C)C)cc2)ncc1C#CCCCNC(=O)CN(C)C(=O)/C=C/CN(C)C` [Compound 7-16], the figures for the IC50 in test [1], in test [2] and in test [3] were 0.01 to 0.1 µM, below 0.01 µM and below 0.01 µM, respectively.

Turning to `CCCNc1nc(Nc2cccc(F)c2)ncc1C#CCCCNC(=O)[C@H](CC)N(C)C(=O)/C=C/CN(C)C` [Compound 7-17], the IC50 in test [1], in test [2] and in test [3] was below 0.01 µM throughout.

As to `CCCNc1nc(Nc2cccc(F)c2)ncc1C#CCCCNC(=O)[C@H](CCC)N(C)C(=O)/C=C/CN(C)C` [Compound 7-18], the figures for the IC50 in test [1], in test [2] and in test [3] were below 0.01 µM, 0.01 to 0.1 µM and 0.01 to 0.1 µM, respectively.

Consider `COc1ccc(Nc2nc(Nc3cccc(F)c3)ncc2C#CCCCNC(=O)[C@H](C)N(C)C(=O)/C=C/CN(C)C)cn1` [Compound 7-19], for which the IC50 in test [1], in test [2] and in test [3] was below 0.01 µM in each case.

Regarding `CCCNc1nc(Nc2ccc(OC)c(F)c2)ncc1C#CCCCNC(=O)[C@H](C)N(C)C(=O)/C=C/CN(C)C` [Compound 7-20, (S,E)-4-(Dimethylamino)-N-(1-((5-(2-((3-fluoro-4-methoxyphenyl)amino)-4-(propylamino)pyrimidin-5-yl)-4-pentyn-1-yl)amino)-1-oxopropan-2-yl)-N-methyl-2-butenamide], the IC50 in test [1], in test [2] and in test [3] was below 0.01 µM throughout.

Take `CCCNc1nc(Nc2ccc(F)nc2)ncc1C#CCCCNC(=O)[C@H](C)N(C)C(=O)/C=C/CN(C)C` [Compound 7-21, (S,E)-4-(Dimethylamino)-N-(1-((5-(2-((6-fluoropyridin-3-yl)amino)-4-(propylamino)pyrimidin-5-yl)-4-pentyn-1-yl)amino)-1-oxopropan-2-yl)-N-methyl-2-butenamide]: the IC50 in test [1], in test [2] and in test [3] was below 0.01 µM each time.

Turning to `COc1ccc(Nc2nc(Nc3ccc(F)nc3)ncc2C#CCCCNC(=O)[C@H](C)N(C)C(=O)/C=C/CN(C)C)cc1` [Compound 7-22], the IC50 in test [1], in test [2] and in test [3] was below 0.01 µM each time.

On to `CCCNc1nc(Nc2ccc(OC)nc2)ncc1C#CCCCNC(=O)[C@H](C)N(C)C(=O)/C=C/CN(C)C` [Compound 7-23], for which the IC50 in test [1] was below 0.01 µM; in test [2] it was below 0.01 µM; in test [3], 0.01 to 0.1 µM.
